The test system of the test is integrin α4β7+ T helper memory lymphocytes in mesenteric lymph nodes. Put plainly: In vivo T lymphocyte trafficking analysis in DSS mouse model of colitis. How it is done: Animal care: The animal care facility employed is accredited by the Canadian Council on Animal Care (CCAC). This study was approved by a certified Animal Care Committee and complied with CACC standards and regulations governing the use of animals for research. The animals were housed under standardized environmental conditions. A standard certified commercial rodent diet was provided ad libitum. Tap water was provided ad libitum at all times.
Dextran sulfate sodium (DSS) was administered to C57BL/6 female mice for five days through addition to their drinking water at 3%. Body weight and disease activity index (“DAI”) were measured on day 5 in order to distribute DSS-treated animals in uniform groups prior to dosing. DAI was scored based on the severity of three specific symptoms associated with colitis: 1- blood in stool (negative hemoccult, positive hemoccult, blood traces in stool visible, rectal bleeding); 2- stool consistency (normal, soft but still formed, very soft, diarrhea); 3- body weight loss.
From day 6 to day 9, the compound of Example 1 or the vehicle were administered orally daily at 5 mL/kg. […] Cell populations were then analyzed using FACSCanto cytometer and gating on CD4+, CD44^hi, CD45RB^low, α4β7+.
Statistical analysis was performed using GraphPad Prism. Differences among groups were evaluated by two-way ANOVA, with a 95% confidence interval. […]

From patent publication US20230295235A1, “COMPOUNDS TARGETING ALPHA4-BETA7 INTEGRIN” (ZEALAND PHARMA A/S, priority 2020, published 2023) come the findings set out here.

For the compound `CC(C)C[C@@H]1NC(=O)c2ccc(-c3ccc(N4CCN(C(=O)c5ccccc5-c5ccccc5C(=O)N5CCN(c6ccc(-c7ccc8cc7CNC(=O)[C@@H]7CCCN7[C@H](C(=O)NC(C)(C)C)[C@H](C)NC(=O)[C@H]([C@@H](C)O)NC(=O)[C@H](CC(=O)O)NC(=O)[C@H](CC(C)C)NC8=O)cc6)CC5)CC4)cc3)c(c2)CNC(=O)[C@@H]2CCCN2[C@H](C(=O)NC(C)(C)C)[C@H](C)NC(=O)[C@H]([C@@H](C)O)NC(=O)[C@H](CC(=O)O)NC1=O` [Example 1, 2,2′-((S,S,S,S,S,S,1^2,8S,11S,14S,17S,18S)-((([1,1′-Biphenyl]-2,2′-Dicarbonyl)-Bis(Piperazine-4,1-Diyl))Bis(4,1-Phenylene))Bis(18-(Tert-Butylcarbamoyl)-14-((R)-1-Hydroxyethyl)-8-Isobutyl-17-Methyl-2,6,9,12,15-Pentaoxo-3,7,10,13,16-Pentaaza-1(2,1)-Pyrrolidina-5(1,3)-Benzenacyclooctadecaphane-5^6,11-Diyl))-Diacetic Acid], under “100 mg/kg orally daily day 6 to 9, DSS-treated C57BL/6 female mice, vs DSS alone”, the “reduction in α4β7+ T cells in the mesenteric lymph nodes” value was found to be 60%. In addition, the “detection of integrin α4β7+ T helper memory lymphocytes in the mesenteric lymph nodes (MLN)” value (10, 30 or 100 mg/kg orally daily day 6 to 9, DSS-treated mice) is on record as “reduced the detection of integrin α4β7+ T helper memory lymphocytes”.
